Results published in publication PMC6893557, “Discovery of Non-peptide Small Molecule Allosteric Modulators of the Src-family Kinase, Hck” (Frontiers in Chemistry, 2019).
Values joined by “and” are separate entries in the source; they are usually repeats but may differ in a detail not shown here. Identical values can stand only once.

Experiments:
[1] = molecular target: T1, Hck U32L protein (Homo sapiens, UniProt P08631); test: Fluorescence polarization (FP) assay: displacement of VSL12 probe peptide from Hck-U32L; format: binding; conditions: IC50, inhibition of VSL12 peptide FP signal, Hck-U32L plus fluorescent VSL12 probe; two independent determinations ± S.E., each data point in triplicate
T1 construct: including the N-terminal unique region, followed by the SH3 and SH2 domains, and the SH2-kinase linker; made in house; host or cells: E. coli
Method: For the FP assay, the peptide was labeled with 6-carboxyfluorescein at its N-terminus. […] Molecular weight and purity of all peptides were verified by mass spectrometry. Stock solutions (10 mM) were prepared in a 1:1 mixture of DMSO and FP assay buffer (20 mM Tris-HCl, pH 8.3) for the labeled peptide and FP assay buffer for the unlabeled peptide. Stock solutions were stored at −20°C.
FP assays were performed in low-volume black 384-well plates with a non-binding surface (Corning #3676). Peptides and proteins were added to each well in FP assay buffer for a final assay volume of 20 μL and mixed by shaking for 5 min at room temperature. […] Raw fluorescence intensity was also read at the same wavelengths for each assay.
Screening libraries were purchased from ChemDiv (10,000 non-peptide peptidomimetic library) and ChemBridge (50,000 compound diversity library). Each library compound was screened at 50 μM and a final DMSO concentration of 1%. […] Each plate contained 32 wells of the Hck U32L protein plus probe peptide and DMSO as positive controls, and 32 wells of mutant Hck U32L-W118A protein plus probe peptide and DMSO as negative controls. Results for each compound test well were ranked by z score analysis according to the formula: z = (sample FP—mean FPsamples)/standard deviationsamples (Shun et al., [2011]). Potential hit compounds, defined as those that inhibited the FP signal by at least 30% and/or with z scores < −3.0, were then retested in quadruplicate using the FP assay under screening assay conditions.
The target protein for HTS consisted of the entire regulatory region of the p59 form of human Hck, including the N-terminal unique region, followed by the SH3 and SH2 domains, and the SH2-kinase linker (referred to hereafter as the Hck “U32L” protein). […] The principle of the assay is illustrated in Figure 2A. Binding of the probe peptide to the SH3 domain in the target protein slows its rotation, resulting in an increase in the FP signal. Library compounds that interfere with probe binding or stabilize SH3-linker interaction reduce the FP signal, and score as hits.

[2] = molecular target: T2, Fgr U-SH32-L (Homo sapiens, UniProt P09769); test: SPR binding, Fgr unique-SH3-SH2-linker protein; conditions: kinetic KD, 1:1 Langmuir model, ± S.E., NI = no interaction; for Kd: read-out: KD, Fgr proteins U-SH32-L
T2 construct: the complete regulatory region, consisting of the unique, SH3, and SH2 domains plus the SH2-kinase linker (U32L protein); made in house; host or cells: E. coli
Method: (§1) SPR analysis was performed on a Reichert 4SPR instrument (Reichert Technologies) using four-channel carboxymethyl dextran hydrogel biosensor chips (Reichert #13206066). Recombinant purified Hck proteins were covalently attached to the chip surface via standard amine coupling chemistry (Grover et al., [2015]). Compounds were prepared in 20 mM Tris-HCl, pH 8.3, 150 mM NaCl, and 1% DMSO and flowed past the immobilized proteins and a reference channel at a flow rate of 50 μL/min for 60 s over a range of concentrations. The binding reaction was followed by dissociation for 120 s, followed by surface regeneration using 10 mM HEPES, pH 7.5, containing 150 mM NaCl, 3 mM EDTA, and 0.05% polysorbate 20, at a flow rate of 50 μL/min for 30 s. All sensorgrams were recorded in triplicate, corrected for buffer effects, and fitted with the 1:1 Langmuir binding model using the TraceDrawer software (Reichert).

[3] = molecular target: T3, Fgr SH32 (Homo sapiens, UniProt P09769); test: SPR binding, Fgr dual SH3-SH2 domain protein; conditions: kinetic KD, 1:1 Langmuir model, ± S.E., NI = no interaction; for Kd: read-out: KD, Fgr proteins SH32
T3 construct: including a dual SH3-SH2 domain protein; made in house; host or cells: E. coli
Method: as §1

[4] = molecular target: T4, Fgr-YEEI (Homo sapiens, UniProt P09769, G526I/P525E/Q524E); test: SPR binding, near-full-length Fgr; conditions: kinetic KD, 1:1 Langmuir model, ± S.E., NI = no interaction; for Kd: read-out: KD, Fgr proteins Fgr-YEEI
T4 construct: near-full-length Fgr, lacking only the unique domain and encoding the same modified C-terminal tail as near-full-length Hck (Fgr-YEEI); made in house; host or cells: Sf9 insect cells
Method: as §1

[5] = molecular target: T5, Hck SH32-L (Homo sapiens, UniProt P08631); test: SPR binding, Hck SH3-SH2-linker protein; conditions: for Kd: kinetic KD, 1:1 Langmuir model, ± S.E., NI = no interaction, read-out: KD, Hck proteins SH32-L
T5 construct: an SH3-SH2-linker protein lacking the N-terminal unique domain; made in house; host or cells: E. coli
Method: as §1
(§2) Interaction was monitored to equilibrium, followed by a dissociation phase. The resulting sensorgrams were best-fit to determine the kinetic rate constants and corresponding KD values, where KD = koff/kon. As positive controls, we also monitored the interaction of peptide ligands for the SH3 and SH2 domains.

[6] = molecular target: T6, Hck-YEEI (Homo sapiens, UniProt P08631, Q523E/Q524E/Q525I); test: SPR binding, near-full-length Hck; conditions: kinetic KD, 1:1 Langmuir model, ± S.E., NI = no interaction, read-out: KD, Hck proteins Hck-YEEI
T6 construct: a near-full-length form of Hck consisting of the SH3, SH2 and kinase domains plus the tyrosine-phosphorylated tail; made in house; host or cells: Sf9 insect cells
Method: as §1, §2

[7] = molecular target: T7, Hck U-SH32-L (Hck-U32L) (Homo sapiens, UniProt P08631); test: SPR binding, Hck unique-SH3-SH2-linker protein; conditions: kinetic KD, 1:1 Langmuir model, ± S.E., NI = no interaction, read-out: KD, Hck proteins U-SH32-L
T7 construct: including the N-terminal unique region, followed by the SH3 and SH2 domains, and the SH2-kinase linker; made in house; host or cells: E. coli
T7 sequence (P08631 22-256): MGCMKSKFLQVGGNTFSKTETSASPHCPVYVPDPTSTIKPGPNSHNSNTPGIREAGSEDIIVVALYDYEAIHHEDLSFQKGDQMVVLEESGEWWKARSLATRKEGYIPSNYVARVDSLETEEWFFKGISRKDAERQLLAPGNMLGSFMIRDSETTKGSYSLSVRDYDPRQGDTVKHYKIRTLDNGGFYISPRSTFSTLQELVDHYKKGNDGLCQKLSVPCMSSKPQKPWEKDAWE
Method: as §1, §2

T2 sequence (P09769 1-257 limits assumed): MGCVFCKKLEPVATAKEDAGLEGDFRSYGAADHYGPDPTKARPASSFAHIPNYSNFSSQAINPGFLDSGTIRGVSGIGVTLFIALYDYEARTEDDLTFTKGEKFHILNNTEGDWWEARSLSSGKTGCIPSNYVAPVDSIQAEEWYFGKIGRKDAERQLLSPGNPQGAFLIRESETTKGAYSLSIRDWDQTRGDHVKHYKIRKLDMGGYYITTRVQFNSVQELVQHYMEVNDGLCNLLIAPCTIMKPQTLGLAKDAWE
T1 sequence (P08631 22-256): as the sequence (P08631 22-256) above
T3 sequence (P09769 77-241 limits assumed): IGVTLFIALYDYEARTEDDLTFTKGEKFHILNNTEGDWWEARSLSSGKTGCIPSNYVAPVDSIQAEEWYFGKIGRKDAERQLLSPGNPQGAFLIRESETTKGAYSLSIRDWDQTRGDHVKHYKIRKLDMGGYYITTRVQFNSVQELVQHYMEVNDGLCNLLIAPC
T5 sequence (P08631 72-256 limits assumed): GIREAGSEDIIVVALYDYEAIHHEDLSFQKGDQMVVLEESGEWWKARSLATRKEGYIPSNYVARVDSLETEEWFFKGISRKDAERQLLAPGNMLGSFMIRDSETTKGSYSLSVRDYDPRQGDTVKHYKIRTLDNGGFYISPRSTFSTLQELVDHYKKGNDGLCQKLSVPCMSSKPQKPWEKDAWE
T6 sequence (P08631 78-526 Q523E/Q524E/Q525I limits assumed): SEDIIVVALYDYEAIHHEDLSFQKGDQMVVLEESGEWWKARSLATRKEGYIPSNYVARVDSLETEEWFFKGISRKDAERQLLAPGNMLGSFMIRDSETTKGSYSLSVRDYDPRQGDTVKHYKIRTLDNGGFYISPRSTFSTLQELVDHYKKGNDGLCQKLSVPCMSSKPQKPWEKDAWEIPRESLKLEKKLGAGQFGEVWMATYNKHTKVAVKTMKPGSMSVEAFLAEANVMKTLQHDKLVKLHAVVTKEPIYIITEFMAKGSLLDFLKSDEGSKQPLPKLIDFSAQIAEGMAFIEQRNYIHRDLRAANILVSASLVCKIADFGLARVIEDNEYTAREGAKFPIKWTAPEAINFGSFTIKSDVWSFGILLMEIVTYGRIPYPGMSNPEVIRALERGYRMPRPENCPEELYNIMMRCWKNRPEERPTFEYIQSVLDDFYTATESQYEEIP
T4 sequence (P09769 77-526 Q524E/P525E/G526I): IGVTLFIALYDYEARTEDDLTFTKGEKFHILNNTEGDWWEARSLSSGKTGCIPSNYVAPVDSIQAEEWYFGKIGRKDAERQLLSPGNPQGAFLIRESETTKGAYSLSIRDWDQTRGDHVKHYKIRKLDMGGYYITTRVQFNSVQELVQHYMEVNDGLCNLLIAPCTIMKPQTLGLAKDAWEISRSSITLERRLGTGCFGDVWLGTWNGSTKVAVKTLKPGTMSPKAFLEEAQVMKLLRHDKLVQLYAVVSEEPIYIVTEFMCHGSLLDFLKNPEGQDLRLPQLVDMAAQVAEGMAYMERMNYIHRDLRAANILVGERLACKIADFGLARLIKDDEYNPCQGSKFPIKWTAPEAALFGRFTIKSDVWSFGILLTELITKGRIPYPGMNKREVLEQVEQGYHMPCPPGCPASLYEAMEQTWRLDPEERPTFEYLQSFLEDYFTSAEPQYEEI

Structure (SMILES)	IC50 [1]	Kd [2] [µM]	Kd [3] [µM]	Kd [4] [µM]	Kd [5] [µM]	Kd [6] [µM]	Kd [7] [µM]	Fold increase of KD with SH3-SH2-linker protein lacking the unique domain vs Hck-U32L [5]	Reduction of extent of binding with SH3-SH2-linker protein lacking the unique domain vs Hck-U32L [5]	KD, Fgr proteins U-SH32-L [2]	KD, Fgr proteins SH32 [3]	KD, Fgr proteins Fgr-YEEI [4]
CC(C)Nc1ccnc(NCc2cccnc2Oc2ccc(F)cc2F)n1 [Compound 1]	52.9 µM and 53.2 µM	131 ± 6	104 ± 3	141 ± 4	83 ± 19	103 ± 4	36 ± 4	–	–	–	–	–
Cc1cnc(NCc2ccccc2-n2ccnc2)nc1N(C)C [Compound 2]	11.3 µM and 16.7 µM	70 ± 5	352 ± 1	107 ± 1	96 ± 2	93 ± 1	30	about 3 fold	about 50%	–	–	–
Cc1cnc(NCc2ccccc2CN2CCCC2=O)nc1N(C)C [Compound 4]	36.1 µM and 59.6 µM	102 ± 4	69 ± 1	64 ± 2	338 ± 4	180 ± 1	831	–	–	–	–	–
CNc1ccnc(NCCC23CCCN2CCC3)n1 [Compound 3]	36.3 µM and 31 µM	–	–	–	905 ± 18	142 ± 1	55 ± 5	–	–	did not bind	did not bind	did not bind
